One assay relates to Escherichia coli. The assay can be described thus: Antibacterial activity against Escherichia coli (ECOL) 6674. The format is functional.
The next assay addresses T1, Peptide deformylase (Staphylococcus aureus subsp. aureus Mu50, UniProt P68825).
T1 sequence (P68825 whole entry): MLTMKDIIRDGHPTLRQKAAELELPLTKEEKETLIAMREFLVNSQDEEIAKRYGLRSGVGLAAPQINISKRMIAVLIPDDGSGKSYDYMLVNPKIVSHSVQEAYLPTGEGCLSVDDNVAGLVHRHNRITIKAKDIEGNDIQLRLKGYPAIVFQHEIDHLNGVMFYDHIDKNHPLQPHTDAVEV
The assay can be described thus: Inhibition of Peptidyl deformylase (PDF).

The subject of another assay is Staphylococcus aureus. In words: Antibacterial activity against Staphylococcus aureus (SAUR) 9218. It is filed as functional.
A further assay has as its system Streptococcus pneumoniae. In words: Antibacterial activity against Streptococcus pneumoniae (SPNE) 9912. It is filed as functional.
Assay [1] has as its system Staphylococcus epidermidis. The assay can be described thus: Antibacterial activity against Staphylococcus epidermidis (SEPI) 12084. The format is functional.

MIC and IC50 data for 14 compounds are collected here from ChEMBL document CHEMBL1134074, “Identification of novel potent hydroxamic acid inhibitors of peptidyl deformylase and the importance of the hydroxamic acid functionality on inhibition” (Bioorg Med Chem Lett, 2001).

Values after ≈ are worked out from the molar mass of the structure shown.

For orientation: MIC means the lowest concentration found to suppress growth. A low value points to greater potency. As usually defined, the IC50 is the point on the concentration scale where inhibition reaches its midpoint. In the case of `O=C(Cc1ccc(-c2ccccc2)cc1)NO`, the MIC (against Escherichia coli; against Staphylococcus aureus; in the assay with Streptococcus pneumoniae; in assay [1]) was greater than 128 µg/mL each time. Further, the half-maximal inhibitory concentration (IC50) against Peptide deformylase is greater than 50 µM.

Consider `O=C(NO)C(NCc1cccc(C(F)(F)F)c1)c1cccc2ccccc12` (stereo unspecified), for which the minimal inhibitory concentration (MIC) (with Escherichia coli; against Staphylococcus aureus; against Streptococcus pneumoniae; in assay [1]) was greater than 64 µg/mL each time.

For the compound `CC(=O)NO` [ACETOHYDROXAMIC ACID], the minimum inhibitory concentration (MIC) (with Escherichia coli; against Staphylococcus aureus; against Streptococcus pneumoniae; in assay [1]) was greater than 128 µg/mL in each case. In addition, the IC50 against Peptide deformylase was greater than 100 µM.

Turning to `O=C(CO)N(CCc1cccc(C(F)(F)F)c1)c1cccc2ccccc12`, the minimal inhibitory concentration (MIC) against Escherichia coli was greater than 128 µg/mL; against Staphylococcus aureus, 32 µg/mL (≈ 85.7 µM); against Streptococcus pneumoniae it was 32 µg/mL (≈ 85.7 µM); in assay [1], greater than 128 µg/mL. The same compound returned an IC50 against Peptide deformylase greater than 100 µM.

With `O=C(O)C(NCc1cccc(C(F)(F)F)c1)c1cccc2ccccc12` (stereo unspecified), the minimum inhibitory concentration (MIC) with Escherichia coli was greater than 128 µg/mL; in the assay with Staphylococcus aureus it was greater than 128 µg/mL; with Streptococcus pneumoniae it was 128 µg/mL (≈ 356 µM); in assay [1], greater than 128 µg/mL. In addition, on Peptide deformylase, the concentration for half-maximal inhibition (IC50) was greater than 100 µM.

`NC(=O)C(NCc1cccc(C(F)(F)F)c1)c1cccc2ccccc12` (stereo unspecified): the minimal inhibitory concentration (MIC) is greater than 128 µg/mL with Escherichia coli, 64 µg/mL (≈ 179 µM) in the assay with Staphylococcus aureus, 16 µg/mL (≈ 44.6 µM) in the assay with Streptococcus pneumoniae and 64 µg/mL (≈ 179 µM) in assay [1]. Also, the IC50 on Peptide deformylase is greater than 100 µM.

Take `O=C(NO)N(CCc1cccc(C(F)(F)F)c1)c1cccc2ccccc12`: the MIC with Escherichia coli was greater than 128 µg/mL; against Staphylococcus aureus, 32 µg/mL (≈ 85.5 µM); in the assay on Streptococcus pneumoniae it was 32 µg/mL (≈ 85.5 µM); in assay [1], 32 µg/mL (≈ 85.5 µM).

With `NNC(=O)N(CCc1cccc(C(F)(F)F)c1)c1cccc2ccccc12`, the minimum inhibitory concentration (MIC) (against Escherichia coli; in the assay on Staphylococcus aureus; with Streptococcus pneumoniae; in assay [1]) was greater than 128 µg/mL in each case. This compound also registered a concentration for half-maximal inhibition (IC50) on Peptide deformylase greater than 100 µM.

Consider `O=C(NO)C(NCc1cccc(C(F)(F)F)c1)c1ccccc1F` (stereo unspecified), for which the MIC (against Escherichia coli; in the assay with Staphylococcus aureus; against Streptococcus pneumoniae; in assay [1]) was greater than 128 µg/mL each time. Besides, on Peptide deformylase, the IC50 turned out to be 0.46 µM.

As for `O=C(NO)C(NCc1cccc(C(F)(F)F)c1)c1ccc(F)c(F)c1` (stereo unspecified), the MIC (against Escherichia coli; with Staphylococcus aureus; with Streptococcus pneumoniae; in assay [1]) was greater than 128 µg/mL in each case. The compound further came in with a 50% inhibitory concentration (IC50) against Peptide deformylase of 0.69 µM.

Consider `O=C(CS)N(CCc1cccc(C(F)(F)F)c1)c1cccc2ccccc12`, for which the minimal inhibitory concentration (MIC) (in the assay on Escherichia coli; against Staphylococcus aureus; in the assay on Streptococcus pneumoniae; in assay [1]) was greater than 128 µg/mL throughout. This compound also displayed an IC50 at Peptide deformylase greater than 100 µM.

For `COc1cccc(C(NCc2cccc(C(F)(F)F)c2)C(=O)NO)c1` (stereo unspecified), the MIC (with Escherichia coli; in the assay on Staphylococcus aureus; against Streptococcus pneumoniae; in assay [1]) was greater than 128 µg/mL each time.

Regarding `NNC(=O)C(NCc1cccc(C(F)(F)F)c1)c1cccc2ccccc12` (stereo unspecified), the MIC was greater than 128 µg/mL in the assay on Escherichia coli, 64 µg/mL (≈ 171 µM) against Staphylococcus aureus, 32 µg/mL (≈ 85.7 µM) in the assay on Streptococcus pneumoniae and 128 µg/mL (≈ 343 µM) in assay [1]. This compound yielded a concentration for half-maximal inhibition (IC50) against Peptide deformylase of 4.1 µM.

`COc1cc(Cl)c(CC(=O)NO)cc1OC`: the MIC (in the assay with Escherichia coli; with Staphylococcus aureus; against Streptococcus pneumoniae; in assay [1]) was greater than 32 µg/mL each time.
